Laboratory results as given in patent US20130137126A1, “USE OF A BETA-G[…] FOR THE DETECTION AND/OR IDENTIFICATION OF C. DIFFICILE” (BIOMERIEUX, priority 2010, published 2013).

Tests used:
Assay type in all cases: cell-based
Clostridium difficile [1] = assay: Activating effect of Ar-beta-glucoside compounds on beta-glucosidase activity, colony coloration on agar media with CHE-beta-glucoside; details: equimolar compounds with CHE-beta-glucoside 0.3 g/l; 24 h
Method: Six strains of Clostridium difficile were tested on the media comprising a compound which could act as a beta-glucosidase activator in these strains. That of the strain bearing the reference 08 01 091 is 056. The compounds tested as beta-glucosidase activators are as follows: • Arbutin; • O-methyl b-glucoside; • Cellobiose; • Salicin; • 4 Aminophenyl-b-glucoside; • 4-methyl-umbelliferone-b-glucoside; • aesculin.
They were tested at concentrations which make it possible to have the same molarity for each of the compounds.
The media used are prepared on the basis of the C. difficile chromID® medium indicated supra, for example 1, to which is added the CHE-beta-glucoside substrate at 0.3 g/l and, respectively, one of the compounds according to the following table:
(§1) The media are distributed into Petri dishes.
(§2) The seeding is performed from 48 h pre-cultures at 37° C. in anaerobiosis.
(§3) A suspension in physiological water at 0.5 McF is carried out and then the strains are seeded with the 10 μl calibrated loop.
Readings are performed after 24 h of incubation at 37° C. and in anaerobiosis.
(§4) Reading scale of the enzymatic activity/ coloration • 0=no activity • 0.5=very pale coloration • 1=clear low-intensity coloration • 2=distinct medium-intensity coloration, • 3=presence of an intense coloration, • 4=presence of a very intense coloration.
(§5) The coloration obtained with this substrate is grey up to an intensity of 1, and black for the other values.

Clostridium difficile [2] = assay: Activating effect of arbutin on various beta-glucosidase substrates, colony coloration on agar media; details: substrates DHF-, alizarin- and 3HF-beta-glucoside; 24 h and 48 h
Method: The eight strains of Clostridium difficile tested in Example 1 were tested on media comprising DHF-beta-glucoside (media A), alizarin-beta-glucoside (media B) or 3HF-beta-glucoside (Media C) and an increasing concentration of arbutin.
The reading of the dishes is then carried out at 24 h and 48 h.
The media used are prepared on the basis of the C. difficile chromID® medium indicated supra, for example 1, to which arbutin is added according to the following table:
According to the substrates, the media are therefore as follows: • DHF-beta-glucoside at 400 mg/L (media TA, 1A, 2A and 3A) • Alizarin-beta-glucoside at 50 mg/L (media TB, 1 B, 2B and 3B) • 3HF-beta-glucoside at 300 mg/L (media TC, 1C, 2C and 3C)
as §1, §2, §3
Readings are performed after 24 h and 48 h of incubation at 37° C. in anaerobiosis.
as §4

Clostridium difficile [3] = assay: Activating effect of arbutin on a beta-glucosidase substrate (CHE-beta-glucoside), colony coloration on agar media; details: 24 h
Method: Eight strains of Clostridium difficile, from the Applicant's collection, were tested on media comprising arbutin at different concentrations with or without CHE-beta-glucoside present. The reading of the dishes is then carried out at 24 h. The media is made up as follows:
C. difficile ChromID® base common to all of the media:
Then addition of arbutin and/or CHE-beta-glucoside, according to the media:
as §1, §2, §3
Readings are performed after 24 h of incubation at 37° C. in anaerobiosis.
as §4, §5

Structure (SMILES)	activating effect on beta-glucosidase of Clostridium difficile (Clostridium difficile [1])	coloration intensity in the presence of arbutin (Clostridium difficile [2])	activation of the beta-glucosidase (intensification of coloration, grey to black) (Clostridium difficile [3]; arbutin added in the presence of CHE-beta-glucoside)	coloration of the colonies (Clostridium difficile [3]; arbutin alone, without CHE-beta-glucoside)
CO[C@@H]1O[C@H](CO)[C@@H](O)[C@H](O)[C@H]1O [O-methyl-beta-glucoside, reference compound]	do not have an activating effect			
O=C[C@H](O)[C@@H](O)[C@H](O[C@@H]1O[C@H](CO)[C@@H](O)[C@H](O)[C@H]1O)[C@H](O)CO [cellobiose, 4-O-beta-D-glucopyranosyl-D-glucose, reference compound]	do not have an activating effect			
OC[C@H]1O[C@@H](Oc2ccc(O)cc2)[C@H](O)[C@@H](O)[C@@H]1O [Arbutin, hydroquinone-beta-D-glucoside]	observed activation of beta-glucosidase	an improvement in the coloration intensity is noted regardless of the substrate used	an activation of the beta-glucosidase is noted	does not allow coloration of the colonies to be obtained
O=c1ccc2cc(O[C@@H]3O[C@H](CO)[C@@H](O)[C@H](O)[C@H]3O)c(O)cc2o1 [aesculin, 6,7-dihydroxy-coumarin-beta-glucoside]	observed activation of beta-glucosidase			
OCc1ccccc1O[C@@H]1O[C@H](CO)[C@@H](O)[C@H](O)[C@H]1O [salicin, 2-(hydroxymethyl)-phenyl-beta-D-glucoside]	observed activation of beta-glucosidase			
Nc1ccc(O[C@@H]2O[C@H](CO)[C@@H](O)[C@H](O)[C@H]2O)cc1 [4-Aminophenyl-beta-glucoside]	observed activation of beta-glucosidase			
